Assay results reported in ChEMBL document CHEMBL1150498, “Novel derivatives of pseudomonic acid” (Bioorg Med Chem Lett, 1997).
Values after ≈ are worked out from the molar mass of the structure shown.

Tested on: Staphylococcus aureus
Assay: Compound was evaluated for inhibitory activity against Staphylococcus aureus ATCC 6538P
Format: functional

Structure (SMILES)	MIC [µg/mL]
COC(=O)CCCCCCCCOC(=O)/C=C/C[C@@H]1OC[C@H](NS(=O)(=O)c2cccc(Cl)c2)[C@@H](O)[C@H]1O	25 (≈ 44.5 µM)
CCCS(=O)(=O)N[C@H]1CO[C@@H](C/C=C/C(=O)OCCCCCCCCC(=O)OC)[C@H](O)[C@@H]1O	> 100
COC(=O)CCCCCCCCOC(=O)/C=C/C[C@@H]1OC[C@H](NS(C)(=O)=O)[C@@H](O)[C@H]1O	> 100
COC(=O)CCCCCCCCOC(=O)/C=C/C[C@@H]1OC[C@H](NS(=O)(=O)CCCCl)[C@@H](O)[C@H]1O	50 (≈ 94.7 µM)
CCCCS(=O)(=O)N[C@H]1CO[C@@H](C/C=C/C(=O)OCCCCCCCCC(=O)OC)[C@H](O)[C@@H]1O	> 100
